Assay [1] addresses T1, insect ecdysteroid receptor (EcR) (Spodoptera frugiperda, UniProt Q8MWR2).
T1 construct: To an Sf-9 cell suspension (400 μL; (2.0–3.0) × 10^6 cells/mL) in a disposable culture tube; endogenous in cells; host or cells: Sf-9 cells
T1 sequence (Q8MWR2 1-403): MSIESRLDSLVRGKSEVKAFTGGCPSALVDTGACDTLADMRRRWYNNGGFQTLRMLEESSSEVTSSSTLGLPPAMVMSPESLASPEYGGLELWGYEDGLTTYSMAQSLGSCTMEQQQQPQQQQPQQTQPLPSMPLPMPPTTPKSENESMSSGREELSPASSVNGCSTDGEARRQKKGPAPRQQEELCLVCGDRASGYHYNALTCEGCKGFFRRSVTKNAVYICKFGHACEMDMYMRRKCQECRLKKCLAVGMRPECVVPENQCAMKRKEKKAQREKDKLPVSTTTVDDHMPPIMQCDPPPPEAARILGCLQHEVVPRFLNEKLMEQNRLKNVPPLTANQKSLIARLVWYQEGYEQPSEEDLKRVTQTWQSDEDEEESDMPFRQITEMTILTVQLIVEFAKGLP
Kind of assay: EcR binding assay ([3H]PonA displacement in Sf-9 cells). As to conditions: for IC50: inhibition of [3H]PonA binding; for inhibition at 25 µM: read-out: inh% at 25 μM; for EcR binding activity in words: [3H]PonA binding; for EcR binding potency/affinity relative to 20E: fold higher than 20E. The procedure:
Tritiated PonA ([^3H]PonA; 3.5 TBq/mmol) was custom synthesized by American Radiolabeled Chemicals, Inc. (St. Louis, MO, USA). A stock solution of [^3H]PonA (30 000 dpm/μL, ∼0.1 μM) was prepared in 70% aqueous EtOH. Cold PonA and 20E were obtained from Enzo Biochem Inc. (New York, NY, USA) and Sigma-Aldrich Co. (St. Louis, MO, USA), respectively. Tebufenozide was obtained from stock samples. All test compounds were dissolved in DMSO. An Sf-9 cell line was cultured in EX-CELL 420 medium (SAFC Biosciences, Inc., Lenexa, KS, USA) supplemented with 10% fetal bovine serum.
The binding assay was performed as described previously with some modifications.[43],[44] To an Sf-9 cell suspension (400 μL; (2.0–3.0) × 10^6 cells/mL) in a disposable culture tube (12 mm × 75 mm) was added a test compound solution (1 μL), followed by a [^3H]PonA solution (2 μL, 60 000 dpm). After incubation at 25 °C for 30 min, the cell suspension was diluted with water (3 mL) and filtered through a glass fiber filter GF/B (25 mm; Whatman plc, Maidstone, UK). The filter was washed with water (2 × 3 mL), dried, and transferred to a glass vial. To the vial were added 3 mL of Insta-Gel Plus (PerkinElmer Inc., Waltham, MA, USA), and the radioactivity was measured with an LSC-8000 counter (Aloka, Tokyo, Japan). DMSO and PonA (final concentration: 2.7 μM) were used to determine the total and nonspecific binding, respectively. The test compounds were first screened at 25 μM, and the compounds with an inhibition rate of ≥50% were subjected to concentration–response experiments. The 50% inhibition concentration for [^3H]PonA binding [IC50 (M)] was determined using probit analysis,[45] and the logarithm of its reciprocal, pIC50, was used as the index of the binding affinity.

In the next assay the target is T2, EcR (Spodoptera frugiperda, UniProt Q8MWR2).
T2 sequence (Q8MWR2 1-403): T1 sequence (Q8MWR2 1-403)
Nature of the assay: Reporter gene assay (hsp27 ecdysone response element/firefly luciferase) in Sf-9 cells. As to conditions: for agonistic activity in reporter gene assay at 1 μM / agonistic activity in reporter gene assay at 0.1 μM: Sf-9 cells, luciferase reporter. It is filed as cell-based, insect. The procedure:
The reporter gene assay was performed in Sf-9 cells according to a previously reported method.[46] Briefly, a reporter plasmid was constructed from pBmbA/hsp27/firefly luciferase (hsp27/Fluc), in which seven repeats of hsp27 ecdysone response element were inserted. This plasmid was a kind gift from Dr. Luc Swevers (Institute of Biosciences & Applications, National Center for Scientific Research “Demokritos”, Athens, Greece). The plasmid was amplified in Escherichia coli and purified using a QIAGEN plasmid midi kit (QIAGEN GmbH, Hilden, Germany). A cell suspension (approximately 2.0 × 10^6 cells/mL; 400 μL) was added to each well of a 24-well plate, and it was incubated for 1 h. Then, 200 μL of a mixture of plasmids and TransFast transfection reagent (Promega; Madison, WI, USA) was added to each well. After incubating for 24 h, 6 μL of a solution of test compound (1% v/v) was added and incubated. After 48 h, the medium in each well was removed with a pipet. Cells were lysed by adding 100 μL/well of Passive Lysis Buffer and incubating for 15 min at 25 °C. The lysate (20 μL) was transferred to a 96-well microplate for the luciferase assay. Chemical luminescence was measured using a 96-microplate GLOMAX luminometer (Promega), according to the manufacturer’s instructions.

Where [2] appears, read: pIC50 (M), ecdysteroid receptor binding affinity, Sf-9 cell suspension, 25 °C, 30 min, probit analysis.

Where “and” joins values, the source holds several entries; their conditions need not be identical. Equal entries are not always repeated. Where two headings read alike, the source gives them in different places.

On to `CC(C)(O)CC[C@@H](O)[C@](C)(O)[C@H]1CC[C@@]2(O)C3=C/C(=N/O)[C@@H]4C[C@@H](O)[C@@H](O)C[C@]4(C)[C@H]3CC[C@]12C` [Compound 17, 20-hydroxyecdysone 6(Z)-oxime], for which, in assay [1] (setting [2]), the IC50 was over 2.51e-05 M. Also, in assay [1], the inhibition at 25 µM is 4.53%.

The compound `CC1(C)CC[C@H]([C@](C)(O)[C@H]2CC[C@@]3(O)C4=CC(=O)[C@@H]5C[C@@H](O)[C@@H](O)C[C@]5(C)[C@H]4CC[C@]23C)O1` [Compound 13, shidasterone] gave an IC50 in assay [1] (setting [2]) of 2.51e-06 M. In addition, the “agonistic activity in reporter gene assay at 1 μM” value (“agonistic activity … at 1 μM” below) at EcR is “did not activate the reporter gene”. In addition, the agonist/antagonist classification result at EcR (binding assay combined with reporter gene assay) is recorded as “ecdysteroid antagonists”.

Take `CC(C)CC[C@@H](O)[C@](C)(O)[C@H]1CC[C@@]2(O)C3=CC(=O)[C@@H]4C[C@@H](O)[C@@H](O)C[C@]4(C)[C@H]3CC[C@]12C` [PonA, ponasterone A, reference compound]: in assay [1] (setting [2]), the IC50 is 8.91e-09 M.

In the case of `CC(C)(O)CC[C@@H](O)[C@](C)(O)[C@H]1CC[C@H]2C3=CC(=O)[C@@H]4C[C@@H](O)[C@@H](O)C[C@]4(C)C3=CC[C@]12C` [Compound 7, 14-Deoxy-25-hydroxydacryhainansterone], the “EcR binding activity in words” value in assay [1] (Sf-9 cells) is given as “moderate”. In assay [1] (setting [2]), this compound had an IC50 of 4.79e-07 M. In addition, at EcR, the “agonistic activity in reporter gene assay at 0.1 μM” value (from here on “agonistic activity … at 0.1 μM”) was “did not show agonistic activity” and the “agonistic activity … at 1 μM” value is “agonists”.

With `CC(C)(O)CC[C@@H](O)[C@](C)(O)[C@H]1CC[C@@]2(O)C3=CC(=O)[C@H]4C[C@@H](O)C[C@@H](O)[C@]4(C)[C@H]3CC[C@]12C` [Compound 15, 5α-2-deoxyintegristerone A], the “EcR binding activity in words” value in assay [1] (Sf-9 cells) is “very weak activity”. Also, in assay [1] (setting [2]), the IC50 was over 2.51e-05 M. In addition, in assay [1], the inhibition at 25 µM worked out at 2.42%.

In assay [1] (setting [2]), `CC(C)CC[C@@H](O)[C@](C)(O)[C@H]1CC[C@@]2(O)C3=CC(=O)[C@@H]4C[C@@H](O)[C@@H](O)C[C@]4(C)[C@H]3[C@H](O)C[C@]12C` [Compound 14, ajugasterone C] showed an IC50 of 6.46e-07 M. In addition, on EcR, the “agonistic activity … at 0.1 μM” value is “agonists”.

On to `CC(C)(O)CC[C@@H](O)[C@](C)(O)[C@H]1CC=C2C3=C(CC[C@@]21C)[C@@]1(C)C[C@H](O)[C@H](O)CC1=C(O)C3=O` [Compound 11, calonysterone], for which the IC50 in assay [1] (setting [2]) was over 2.51e-05 M. For the same compound, in assay [1], the inhibition at 25 µM was determined as 0%.

Consider `CC(C)(O)CC[C@@H](O)[C@](C)(O)[C@H]1CC[C@@]2(O)C3=CC(=O)[C@@H]4C[C@@H](O)[C@@H](O)C[C@]4(C)[C@@]3(O)CC[C@]12C` [Compound 20, 9α,20-dihydroxyecdysone], for which the IC50 in assay [1] (setting [2]) was over 2.51e-05 M. Also, the inhibition at 25 µM in assay [1] was found to be 45.7%.

The compound `CC(C)(O)CC[C@@H](O)[C@](C)(O)[C@H]1CC[C@@H]2C3=C(CC[C@@]21C)[C@@]1(C)C[C@H](O)[C@H](O)CC1=C(O)C3=O` [Compound 4, 14β-14,15-Dihydrocalonysterone] came in with an IC50 in assay [1] (setting [2]) of about 2.51e-05 M. Also, the inhibition at 25 µM in assay [1] stood at 49.8%.

As for `CC(C)CC[C@@H](O)[C@](C)(O)[C@H]1CC[C@H]2C3=CC(=O)[C@@H]4C[C@@H](O)[C@@H](O)C[C@]4(C)C3=CC[C@]12C` [Compound 5, 14-Deoxydacryhainansterone], in assay [1] (IC50, EcR binding, Sf-9 cells), the IC50 is 4.17e-08 M and 4.2e-08 M. Besides, the “EcR binding activity in words” value in assay [1] (Sf-9 cells) was “strong”. In addition, in assay [1], the “EcR binding potency/affinity relative to 20E” value was “approximately 4 times”. The “agonistic activity … at 0.1 μM” value at EcR was “agonists”.

`C/C(=N\O)[C@H]1CC[C@@]2(O)C3=CC(=O)[C@@H]4C[C@@H](O)[C@@H](O)C[C@]4(C)[C@H]3CC[C@]12C` [Compound 16, poststerone 20(E)-oxime] displayed an IC50 in assay [1] (setting [2]) of over 2.51e-05 M. The inhibition at 25 µM in assay [1] came to 4.3%.

For `CC(C)(O)CC[C@@H](O)[C@](C)(O)[C@H]1CC[C@@]2(O)C3=CC(=O)[C@@H]4C[C@@H](O)[C@@H](O)C[C@]4(C)[C@H]3CC[C@]12C` [20E, 20-hydroxyecdysone, reference compound], the IC50 in assay [1] (Sf-9 cell suspension, 25 °C, 30 min, probit analysis, read-out: pIC50 (M), ecdysteroid receptor binding affinity (converted)) is 1.66e-07 M.

For `CC(C)(O)CC[C@@H](O)[C@](C)(O)[C@H]1CC[C@H]2C3=CC(=O)[C@@H]4C[C@@H](O)[C@@H](O)C[C@]4(C)[C@H]3CC[C@]12C` [Compound 8, 14-Deoxy-20-hydroxyecdysone], the “EcR binding potency/affinity relative to 20E” value in assay [1] turned out to be 2.4 times. For the same compound, the IC50 in assay [1] (setting [2]) was 6.92e-08 M. Further, the “agonistic activity … at 0.1 μM” value at EcR is reported as “agonists”.

In assay [1] (setting [2]), `CC(C)(O)CC[C@@H](O)[C@](C)(O)[C@H]1CC[C@@]2(O)C3=C/C(=N\O)[C@@H]4C[C@@H](O)[C@@H](O)C[C@]4(C)[C@H]3CC[C@]12C` [Compound 18, 20-hydroxyecdysone 6(E)-oxime] showed an IC50 of about 2.51e-05 M. Besides, in assay [1], the inhibition at 25 µM was found to be 60.1%.

Take `CC(C)(O)CC[C@@H](O)[C@](C)(O)[C@H]1CC[C@H]2C3=CC(=O)[C@H]4C[C@@H](O)[C@@H](O)C[C@]4(C)[C@H]3CC[C@]12C` [Compound 9, 5α-14-Deoxy-20-hydroxyecdysone]: the “EcR binding activity in words” value in assay [1] (Sf-9 cells) is listed as “very weak activity”. Further, in assay [1] (setting [2]), the IC50 was over 2.51e-05 M. For the same compound, in assay [1], the inhibition at 25 µM is 0.93%.

In assay [1] (IC50, EcR binding, Sf-9 cells), `CC(C)CCC(=O)[C@](C)(O)[C@H]1CC[C@@]2(O)C3=CC(=O)[C@@H]4C[C@@H](O)[C@@H](O)C[C@]4(C)C3=CC[C@]12C` [Compound 6, 22-Oxodacryhainansterone] came in with an IC50 of 3.8e-07 M. Further, the “EcR binding activity in words” value in assay [1] (Sf-9 cells) is “moderate”. For the same compound, on EcR, the “agonistic activity … at 0.1 μM” value is given as “did not show agonistic activity” and the “agonistic activity … at 1 μM” value was “agonists”.

For `CC(C)CC[C@@H](O)[C@](C)(O)[C@H]1CC[C@@]2(O)C3=CC(=O)[C@@H]4C[C@@H](O)[C@@H](O)C[C@]4(C)C3=CC[C@]12C` [Compound 12, dacryhainansterone], in assay [1] (Sf-9 cells), the “EcR binding activity in words” value is given as “strong”. In addition, the IC50 in assay [1] (setting [2]) is 2.29e-08 M. In addition, at EcR, the “agonistic activity … at 0.1 μM” value was “agonists”.

Regarding `CC(C)(O)CC[C@@H](O)[C@](C)(O)[C@H]1CC[C@@H]2C3=CC(=O)[C@@H]4C[C@@H](O)[C@@H](O)C[C@]4(C)[C@H]3CC[C@@]21C` [Compound 10, 14β-14-Deoxy-20-hydroxyecdysone], the IC50 in assay [1] (setting [2]) was over 2.51e-05 M. Besides, in assay [1], the inhibition at 25 µM came out at 18.2%.

As to `CC(C)(O)CC[C@@H](O)[C@](C)(O)[C@H]1CC[C@@]2(O)C3=CC(=O)[C@H]4C[C@@H](O)[C@@H](O)C[C@]4(C)[C@@]3(O)CC[C@]12C` [Compound 21, 5α-9α,20-dihydroxyecdysone], the “EcR binding activity in words” value in assay [1] (Sf-9 cells) is reported as “very weak activity”. Also, in assay [1] (setting [2]), the IC50 is over 2.51e-05 M. For the same compound, the inhibition at 25 µM in assay [1] came to 27.1%.

(Values after publication PMC8314276, “A Commercial Extract of Cyanotis arachnoidea Roots as a Source of Unusual Ecdysteroid Derivatives with Insect Hormone Receptor Binding Activity” (Journal of Natural Products, 2021).)
